Experimental findings from the METLIN SMRT retention time set (Domingo-Almenara et al. 2019) are described below.

The data set is described as follows: gradient 5% acetonitrile 3 min, to 50% in 2 min, to 85% in 15 min, held 3 min, 100 µL/min. As to conditions: column: Zorbax Extend-C18 2.1 x 50 mm; eluents: water / acetonitrile, 0.1% formic acid. An outline of the steps: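 Over 3 months, pure standards in mixtures of ~100 molecules were run by HPLC coupled to a quadrupole time-of-flight mass spectrometer in positive and negative ionization mode. The column was a Zorbax Extend-C18 (2.1 × 50 mm, 1.8 μm) at 100 μL/min, eluted with water and acetonitrile each holding 0.1% formic acid, with 40 μL dead and 900 μL dwell volumes. Retention time was determined from adduct peaks chosen by software and checked manually.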
Regarding `COc1ccc(OC)c(NC(=O)NCC(c2cccnc2)c2cn(C)c3ccccc23)c1` (centres undefined), the RP-LC retention time turned out to be 713 s.
Consider `CCCNC(=O)C1CCCN1S(=O)(=O)c1cc(C(=O)OCC)n(C)c1` (centres undefined), for which the RP-LC retention time was 762 s.
Compound `O=C(Cn1cnc2nc3c(cc2c1=O)CCCC3)Nc1cc(F)ccc1F` yielded an RP-LC retention time of 738 s.
Turning to `COc1ccc(CNC(=O)C2CCN(S(C)(=O)=O)c3cc(C)ccc3O2)cc1` (centres undefined), the RP-LC retention time came out at 830 s.
Compound `CCc1sc(NC(=O)c2sc(C)nc2C)nc1-c1ccc(Br)cc1` gave an RP-LC retention time of 1160 s.
For `C[C@H](NC(=O)Cc1cc(F)cc(F)c1)C(=O)N[C@@H]1C(=O)N(C)c2ccccc2-c2ccccc21` the value was 949 s; for `O=C(NCc1cc(F)ccc1F)C1CCN(c2nnc(-c3ccccc3)o2)CC1`, 819 s.
In turn, `Cc1cccn2cc(C(=O)NCc3cccc(Cl)c3)nc12` yielded an RP-LC retention time of 777 s.
Regarding `Cc1c(OC(C)C(=O)O)ccc2c1oc(=O)c1ccccc12` (centres undefined), the RP-LC retention time was 847 s.
`CCc1nc(-c2csc(S(=O)(=O)N3CCCC(C(=O)NC4CCCCC4)C3)c2)no1` (centres undefined): the RP-LC retention time amounted to 1020 s.
In the case of `CCN1C(=O)c2cc(S(=O)(=O)Nc3ccc(F)c(F)c3)ccc2Oc2cccnc21`, the RP-LC retention time is 1050 s.
As to `CCNC(=O)c1nc(C(=O)NCc2ccc(F)cc2)cs1`, the RP-LC retention time stood at 751 s.
`CCN1CCn2cc(S(=O)(=O)N3CCN(c4ccccc4Cl)CC3)cc2C1=O` registered an RP-LC retention time of 892 s.
`NC[C@@H]1O[C@H](C23CC4CC(CC(C4)C2)C3)Cc2c1ccc(O)c2O` showed an RP-LC retention time of 787 s.
The compound `CCOC(=O)C1CCN(C(=O)C2CCCN(S(=O)(=O)c3ccc(OC)c(Cl)c3)C2)CC1` (centres undefined) returned an RP-LC retention time of 940 s.
`Cc1nn(CCC(=O)NCCc2ccco2)c(=O)c2nn(-c3ccccc3)c(C)c12` came in with an RP-LC retention time of 726 s.
`O=C(Cn1ccc2cc(S(=O)(=O)N3CCCCC3)ccc21)N1CCN(c2ccccn2)CC1`: the RP-LC retention time came to 660 s.
Regarding `N#Cc1cccc(NC(=O)C2CCN(S(=O)(=O)c3ccc4[nH]c(=O)ccc4c3)CC2)c1`, the RP-LC retention time is 706 s.
The value for `CNC(=O)N1CCCN(C2=NS(=O)(=O)C(c3ccc(Cl)cc3)=C2C)CC1` was 703 s; that for `CCn1cnc2c1CN(S(=O)(=O)c1ccc(C#N)cc1)CC2` was 616 s.
Consider `O=C(C1CCC1)N1CCc2sc(S(=O)(=O)NCc3ccccc3Cl)cc2C1`, for which the RP-LC retention time was determined as 923 s.
Consider `CCCN(C(=O)CC(=O)OCC)c1nc(-c2ccc(C)cc2)cs1`, for which the RP-LC retention time turned out to be 1250 s.
`Cc1cc2c(F)c(Oc3ncnn4cc(OC[C@@H](C)O)c(C)c34)ccc2[nH]1` returned an RP-LC retention time of 880 s.
With `CCC1=C(c2ccc(C)cc2)S(=O)(=O)N=C1N1CCC(C(=O)N2CCOCC2)CC1`, the RP-LC retention time was determined as 780 s.
In the case of `Cc1nc(-n2cccc2)sc1C(=O)N1CC(c2nc(-c3cccc(Cl)c3)no2)C1`, the RP-LC retention time worked out at 1110 s.
`Cc1cccc(-c2noc(C3CCCN3C(=O)Nc3ccc4c(c3)OCO4)n2)c1` (centres undefined): the RP-LC retention time came out at 961 s.
The value for `COc1cccc(NC(=O)C2CCCN2S(=O)(=O)c2cc3c(cc2C)NC(=O)CO3)c1` (centres undefined) was 722 s.
With `COC(=O)c1ccc2c(=O)n(CCc3ccccc3)c(N3CCOCC3)nc2c1`, the RP-LC retention time was determined as 995 s.
On to `Nc1nnc(SCC(=O)Nc2nc(-c3ccccc3)cs2)s1`, for which the RP-LC retention time amounted to 751 s.
Consider `CCN1CCN(c2cc(C)c3cc(NC(=S)NCc4ccc(C)cc4)ccc3n2)CC1`, for which the RP-LC retention time is 617 s.
The value for `O=C(NCc1ccc2c(c1)OCO2)C1CCN(c2nc3ccccc3o2)CC1` was 754 s; that for `Cc1cc(C)c2c(N3CCOCC3)nc(C(=O)NCc3cc(F)ccc3F)nc2n1` was 590 s; that for `CC1(C)CC(=O)c2cn(-c3ccccc3)c(=O)c(C(=O)Nc3ccccc3F)c2C1` was 1040 s.
In turn, `CCc1cccc(NS(=O)(=O)c2cc3n(c2)CCCN(C)C3=O)c1` gave an RP-LC retention time of 728 s.
`Cc1ccc(S(=O)(=O)/C=C/C#N)cc1` showed an RP-LC retention time of 929 s.
In the case of `O=C1NC2(CCN(C(=O)Nc3ccc(F)cc3)CC2)N=C1c1ccc(Cl)cc1`, the RP-LC retention time was determined as 890 s.
In the case of `Cc1cccc(C)c1NC(=O)Cn1c(C)nc2c(sc3nc(-c4ccccc4)ccc32)c1=O`, the RP-LC retention time was 1080 s.
With `COc1ccccc1-c1noc(CCn2nc(-c3ccccc3)ccc2=O)n1`, the RP-LC retention time worked out at 817 s.
The value for `CCCNC(=O)c1ccc2c(c1)CCCN2S(C)(=O)=O` was 713 s.
The compound `CCOC(=O)N1CCC(Nc2c(C(=O)OC)c(=O)[nH]c3ccc(F)cc23)CC1` displayed an RP-LC retention time of 705 s.
The value for `Cc1ccc(NC(=O)C2CC(=O)N(CCc3c[nH]c4ccc(Cl)cc34)C2)cc1` (centres undefined) was 884 s.
Compound `O=S(=O)(c1cc(F)cc(F)c1)N1CCN(Cc2cccc(F)c2)C2(CCOCC2)C1` displayed an RP-LC retention time of 958 s.
`Cc1cccc(OCc2nc(-c3cccc(-c4ccnn4C)c3)no2)c1` showed an RP-LC retention time of 824 s.
For `CCOCC(=O)N1CCOc2ccc(N(C)C)cc2C1` the value was 566 s.
The value for `O=C(CCC1CCCC1)NCCC1CCN(C(=O)Nc2ccc(F)cc2)CC1` was 887 s.
`Cc1nc(-c2cccnc2)nc2c1CCC(=O)N2Cc1ccccn1` came in with an RP-LC retention time of 566 s.
For the compound `O=C(NCc1ccco1)c1coc(NC(=O)C2CC2)n1`, the RP-LC retention time is 600 s.
The value for `O=C(C1CCN(c2nnc(-n3cccc3)s2)CC1)N1CCN(c2ccccn2)CC1` was 640 s; that for `COC(=O)c1c(-c2ccccc2)noc1NCc1cccc(OC)c1` was 677 s; that for `CCOCCCNC(=O)c1c2c(cn(-c3ccc(Cl)cc3)c1=O)C(=O)CC(C)(C)C2` was 931 s.
For the compound `O=C(CSC1CCCC1)N1CCCC(c2nnc(-c3ccccc3F)s2)C1` (centres undefined), the RP-LC retention time was 994 s.
The value for `CC(C)C(=O)NCCn1c(=O)n(Cc2ccccc2)c2cccnc21` was 714 s; that for `COC1CCC12CCN(C(=O)Nc1ccc3c(c1)OCCO3)CC2` (centres undefined) was 742 s; that for `[N-]=[N+]=Nc1ccc2c(c1)Sc1ccccc1N2CCCCN1CCN(Cc2ccc(C(=O)c3ccccc3)cc2)CC1` was 1040 s.
The compound `Cc1ccccc1NS(=O)(=O)c1cc2[nH]c(=O)[nH]c2cc1C` returned an RP-LC retention time of 679 s.
In turn, `CCN1CCN(c2cc(-c3nc(-c4ccccc4)no3)c3ccccc3n2)CC1` showed an RP-LC retention time of 822 s.
For the compound `Cc1cc2c(cc1S(=O)(=O)N1CCCC1C(=O)N(Cc1ccccc1)C(C)C)OCC(=O)N2` (centres undefined), the RP-LC retention time came to 837 s.
In turn, `Cn1cnc2c(C(=O)N3CCN(C4CCCCC4)CC3)nn(-c3ccc(Cl)cc3)c2c1=O` gave an RP-LC retention time of 654 s.
Compound `Cc1ccn2cc(CC(=O)Nc3ccccc3)nc2c1` came in with an RP-LC retention time of 588 s.
The compound `O=C(c1ccccc1Cl)N1CCC2(CC1)OCC(C(=O)N1CCOCC1)N2C(=O)c1ccccc1` (centres undefined) returned an RP-LC retention time of 656 s.
For `COC(=O)c1cc(Cl)ccc1NC(=O)COc1nc(C)nc2ccccc12`, the RP-LC retention time is 897 s.
As for `COc1ccc(-c2noc(CSc3nccn3-c3ccc(C)cc3)n2)cc1OC`, the RP-LC retention time is 856 s.
With `O=C(COc1ccc(Cl)cc1)Nc1ccc(-c2nnc3n2CCCC3)cc1`, the RP-LC retention time was 757 s.
The value for `Cc1cc(C)c(S(=O)(=O)N2CCCC2c2nc(-c3ccc(Cl)cc3)no2)c(C)c1` (centres undefined) was 1360 s.
For `O=C(Nc1ccc2c(c1)OCCO2)c1ccc(-c2ccsc2)nc1` the value was 864 s.
The value for `CCOc1ccc(NC(=O)N2CCC(n3cnnc3C3CC3)C2)cc1` (centres undefined) was 630 s.
For `CCc1ccc(CNC(=O)C2CCN(c3cncnc3N3CCOCC3)CC2)cc1`, the RP-LC retention time was determined as 666 s.
The value for `O=C(Nc1ccc2sccc2c1)c1ccc([N+](=O)[O-])s1` was 924 s; that for `COCCn1cc(CCNC(=O)Nc2ccc(Br)cc2)c2cccnc21` was 778 s.
Regarding `COc1cc(C2C(=O)N(C3CCCCC3)CC(=O)N2Cc2ccco2)ccc1OC(C)C` (centres undefined), the RP-LC retention time turned out to be 964 s.
As for `O=C(Cn1ncc2c3ccccc3n(Cc3ccccc3F)c2c1=O)N1CCN(c2ccccn2)CC1`, the RP-LC retention time is 699 s.
`O=C(Nc1cccnc1)c1c2c(nc3ccccc13)C(=O)N(C1CCCCC1)C2` had an RP-LC retention time of 669 s.
Compound `O=C(NCCc1ccccc1)N1C[C@@H]2C[C@H](NS(=O)(=O)c3cccnc3)[C@H]1C2` yielded an RP-LC retention time of 679 s.
As for `CCC(C)C(NC(=O)Cc1cccc(OC)c1)C(=O)Nc1nc2ccccc2[nH]1` (centres undefined), the RP-LC retention time worked out at 733 s.
In turn, `COc1ccc(S(=O)(=O)N2CCCC2C(N)=O)cc1` (centres undefined) had an RP-LC retention time of 593 s.
Compound `CCCNC(=O)N1c2ccccc2CC1c1nc(C(C)C)no1` (centres undefined) had an RP-LC retention time of 910 s.
The value for `COc1ccc(C(=O)N2CCC(c3cc(N)on3)CC2)cc1OC` was 615 s; that for `COc1ccc(-c2nnc(Cc3nc(-c4cccs4)no3)o2)cc1` was 913 s.
The value for `CC(C)CC(=O)Nc1ccc2c(c1)N(C(=O)c1ccco1)CCC2` was 802 s.
